Here are results for six compounds from patent US20130315829A1, “Compounds and Methods for Detecting Reactive Oxygen Species” (The Regents of the University of California, priority 2010, published 2013).

The subject of test [1] is FVB-luc mice. The test can be described thus: In vivo antioxidant experiments in FVB-luc mice. Further details: species or system mouse. To be noted: NAC 0.2 mg i.p. then PCL-1 i.p., total photon flux over one hour. The source says: (§1) A Xenogen IVIS Spectrum instrument (Caliper Life Sciences, Hopkinton, Mass.) was used for bioluminescent imaging in all in vivo experiments. Phosphate Buffered Saline (PBS) was purchased from Thermo Fisher Scientific (Waltham, Mass.). Isoflurane was purchased from Phoenix Pharmaceuticals, Inc. (St. Joseph, Mo.), and sterile DMSO was purchased from Sigma-Aldrich (St. Louis, Mo.). Medical grade oxygen was purchased from Praxair (Danbury, Conn.).
(§2) Animals. FVB-luc (FVB-Tg(CAG-luc,-GFP)L2G85Chco/J) mice were obtained from UC Davis, and SHO mice were obtained from Charles River Labs. Mice were single or group-housed on a 12:12 light-dark cycle at […] with free access to food and water. All studies were approved and performed according to the guidelines of the Animal Care and Use Committee of the University of California, Berkeley.
Adult FVB-luc mice were anesthetized with isoflurane and injected with N-acetylcysteine (0.2 mg, 100 μL PBS, pH 7-8), followed immediately by an i.p. injection of PCL-1 (5 μmol, 50 μL 1:1 DMSO:PBS). Control mice were injected with 100 μL PBS and PCL-1.
(§3) PCL-1 was applied to molecular imaging of H2O2 in living animals. Initial studies utilized FVB-luc mice that ubiquitously express firefly luciferase along with exogenous peroxide addition. […]

Another test relates to LNCaP-luc tumors. Briefly: LNCaP-luc tumor xenograft model in SHO mice. In kind it is in vivo, mouse.
A short description of test [2]: In vitro ROS selectivity test with purified firefly luciferase: other ROS. It counts as biochemical. Particulars: PCL-1 5 μM, ROS 100 μM, 5-60 minutes, then firefly luciferase. As to the method:
(§4) Millipore water was used to prepare all aqueous solutions. Measurements for in vitro tests were performed in 50 mM Tris buffer, pH 7.4, with 10 mM MgCl2, 0.1 mM ZnCl2, and 2 mM ATP at 37° C. Bioluminescent measurements for in vitro tests were recorded using a Molecular Devices SpectraMax M2 plate reader (Sunnyvale, Calif.). Samples for bioluminescent measurements were placed in white, opaque 96-well plates, which were purchased from Corning Inc. (Corning, N.Y.). ATP was purchased from MP Biomedicals (Solon, Ohio), and luciferase was purchased from Promega (Madison, Wis.).
(§5) Various reactive oxygen species (ROS, 100 μM) were administered to PCL-1 (5 μM) in the Tris buffer as follows. Hydrogen peroxide (H2O2), tert-butyl hydroperoxide (TBHP), and hypochlorite (OCl^−) were delivered from 30%, 70%, and 6.15% aqueous solutions, respectively. […]
(§6) Initial experiments tested the ability of PCL-1 to detect H2O2 in a selective and concentration-dependent manner. […] PCL-1 was incubated with various ROS for 5-60 minutes followed by addition of firefly luciferase, and then light production was measured over 45 minutes to determine whether luciferin was produced during the ROS incubation period. The total normalized photon flux was calculated by dividing each total photon flux by the zero timepoint total photon flux for each run to allow a direct comparison between various ROS. […]

Test [3] deals with FVB-luc mice. The test can be described thus: In vivo exogenous H2O2 experiments in FVB-luc mice. Further details: species or system mouse. Particulars: PCL-1 i.p. 0.5 μmol.
Excerpt: as §1, §2
Adult FVB-luc mice were anesthetized with isoflurane and injected (i.p.) with PCL-1 (0.5 μmol, 50 μL 1:1 DMSO:PBS), followed immediately by an i.p. injection of H2O2 (0.0375, 0.15, 0.6, and 2.4 μmol in 100 μL PBS). Control mice were injected with PCL-1 and 100 μL PBS.
as §3

The nature of test [4]: In vitro ROS selectivity test with purified firefly luciferase: H2O2. To be noted: PCL-1 5 μM, H2O2 100 μM, over an hour, then firefly luciferase; light integrated over 45 minutes. In kind it is biochemical. The method, then: as §4, §5, §6
Test [5] concerns LNCaP-luc cells. The test can be described thus: Bioluminescence of LNCaP-luc cells with PCL-1 and exogenous H2O2. It counts as cell-based, human. Particulars: PCL-1 50 μM. As to the method: A Xenogen IVIS Spectrum instrument (Caliper Life Sciences, Hopkinton, Mass.) was used for bioluminescent imaging in all ex vivo experiments. LNCaP-luc cells (kindly provided by Chris Contag, Stanford University) were cultured in Dulbecco's Modified Eagle Medium (DMEM) containing 10% Fetal Bovine Serum (FBS). Cells were split twice per week. Prior to assaying, cells were passed and plated (4×10^4 cells/well) in black 96-well plates with clear bottoms (Becton Dickinson and Company, Franklin Lakes, N.J.). Two days after being plated, once the cells were ca. 95% confluent, the medium was removed and PCL-1 (2.5% final DMSO concentration) and H2O2 (2.5-500 μM final concentrations) in DMEM (−FBS) were added. The plate was immediately imaged for 2 hours. For stimulation experiments, the cells (ca. 95 confluent) were incubated with paraquat (0 or 500 μM, 100 μL DMEM+10% FBS) for 24 hours prior to the addition of PCL-1 (50 μM) with or without catalase (1×10̂4 U/L).
With data showing that PCL-1 is a selective and sensitive bioluminescent reporter for H2O2 in aqueous solution, this system was applied to imaging changes in H2O2 levels in cell culture. […] To achieve this goal, PCL-1 and H2O2 were added to LNCaP-luc cells stably transfected with the firefly luciferase gene. In the absence of H2O2, the bioluminescent signal from the cells was negligible. In contrast, addition of 2.5 to 500 μM H2O2 triggers a linear increase, up to 250 μM, in the total observed photon flux (FIG. 3). The 2.5 μM detection limit for H2O2 is well within estimated concentration ranges of endogenously produced H2O2 fluxes.
Total photon flux, integrated over 2 h, from LNCaP-luc cells with PCL-1 (50 μM) and H2O2 (2.5-500 μM) in DMEM. All values show statistically significant differences (p<0.001) except between 250 and 500 μM H2O2. (b) Total photon flux, integrated over 2 h, from LNCaP-luc cells incubated with paraquat (0 or 500 μM) for 24 h, followed by addition of PCL-1 (50 μM)±catalase (1×10̂4 U/L). […]

Test [6] concerns LNCaP-luc cells. Briefly: Paraquat stimulation of endogenous H2O2 in LNCaP-luc cells, with or without catalase. It counts as cell-based, human.
Protocol: A Xenogen IVIS Spectrum instrument (Caliper Life Sciences, Hopkinton, Mass.) was used for bioluminescent imaging in all ex vivo experiments. […] Cells were split twice per week. Prior to assaying, cells were passed and plated (4×10^4 cells/well) in black 96-well plates with clear bottoms (Becton Dickinson and Company, Franklin Lakes, N.J.). Two days after being plated, once the cells were ca. 95% confluent, the medium was removed and PCL-1 (2.5% final DMSO concentration) and H2O2 (2.5-500 μM final concentrations) in DMEM (−FBS) were added. The plate was immediately imaged for 2 hours. For stimulation experiments, the cells (ca. 95 confluent) were incubated with paraquat (0 or 500 μM, 100 μL DMEM+10% FBS) for 24 hours prior to the addition of PCL-1 (50 μM) with or without catalase (1×10̂4 U/L).
To determine whether PCL-1 could detect endogenously produced H2O2 in living cells, LNCaP-luc cells were incubated with 500 μM paraquat for 24 hours, as previous work establishes that paraquat triggers elevations in intracellular H2O2 through disruption of the mitochondrial electron transport chain. Following paraquat stimulation, the LNCaP-luc cells were loaded with PCL-1 and the subsequent bioluminescent signal was detected.
Because luciferin is a cell-permeable small molecule, two possible modes of action for PCL-1 are (i) reaction of this probe with H2O2 in the extracellular medium followed by cellular uptake of the free luciferin product, or (ii) reaction of PCL-1 with intracellular H2O2 to generate luciferin within cells. To probe whether PCL-1 was reacting with H2O2 in the intra- or extracellular space, catalase was added as a cell-impermeable scavenger for extracellular H2O2 with paraquat stimulation.

Protocol for LNCaP-luc tumors: Animals. […] Mice were single or group-housed on a 12:12 light-dark cycle at 71° C. with free access to food and water.
Tumor xenografts were created via i.p. injection of 3×10̂6 LNCaP-luc cells (100 μL, 1:1 PBS:Matrigel) in adult SHO mice. Tumor size was monitored by injecting 0.5-5 μmol D-lucifeirn (potassium salt, Gold Biotech., St. Louis, Mo.) in PBS. At least two weeks post-inoculation, tumors were injected with PCL-1, valeryl luciferin, testosterone propionate and N-acetylcysteine in various combinations to obtain the experimental data. On day one of the experiments, mice were injected with either PCL-1 (0.5 μmol) or valeryl luciferin (0.44 μmol) and imaged for 45 minutes using an IVIS spectrum. To determine the effect of testosterone on the tumors, the mice were injected with testosterone propionate (3 mg in 50 μL sesame oil) on day 2, followed 1.5 hours later by an injection of PCL-1 (0.5 μmol) or valeryl luciferin (0.44 μmol). Controls for the testosterone experiment were completed by injecting sesame oil (50 μL) on day 2, followed by the probe (0.5 μmol) or valeryl luciferin (0.44 μmol) 1.5 hours later. Additional experiments with N-acetylcysteine were completed by injecting the mice with testosterone propionate (3 mg in 50 μL sesame oil) on day 2, followed 1.5 hours later by injections of N-acetylcysteine (0.2 mg in 100 μL PBS) and PCL-1 (0.5 μmol). Day 2 injections were followed by 45 minutes of imaging.
To study the stimulatory effects of testosterone and H2O2 production in prostate cancer in living animals, an intraperitoneal (i.p.) LNCaP-luc tumor xenograft model was developed in immunodeficient severe combined immunodeficiency hairless outbred (SHO) mice. To determine the baseline levels of H2O2 generation in the tumors as well as alterations in H2O2 fluxes over 24 hours, mice were injected with PCL-1 on Day 1 and with sesame oil, a vehicle used for all experiments, and PCL-1 after 24 hours on Day 2. […] The effects of testosterone (in the form of testosterone propionate) on H2O2 production were tested within the prostate cancer tumors. For these experiments, mice were injected with PCL-1 on Day 1 and the baseline signal was measured. On Day 2, the mice were injected either with testosterone propionate and then PCL-1, or empty vehicle and PCL-1.
These experiments were performed by injecting mice on Day 2 with testosterone propionate, followed by serial application of NAC and PCL-1.

On to `CC(=O)N[C@@H](CS)C(=O)O` [NAC, N-acetylcysteine], for which the “bioluminescent signal of NAC-treated animals compared to vehicle control animals” value with FVB-luc mice [1] is “significantly reduced bioluminescent signal”. The “bioluminescent signal in testosterone-stimulated animals after NAC treatment” value in the test with LNCaP-luc tumors (SHO mice with LNCaP-luc tumors, testosterone propionate 3 mg, then NAC 0.2 mg and PCL-1 0.5 μmol) was “reduction in bioluminescent signal in testosterone-stimulated animals back to baseline levels”.
As for `O=C(O)[C@H]1CSC(c2nc3ccc(OCc4ccc(B(O)O)cc4)cc3s2)=N1` [PCL-1, (S)-2-(6-(4-Boronobenzyloxy)benzo[d]thiazol-2-yl)-4,5-dihydrothiazole-4-carboxylic acid], in test [2], the “increase in bioluminescent signal on reaction with the other ROS” value is given as “little to no increase in signal”. Moreover, the “change in basal bioluminescent signal from Day 1 to Day 2” value with LNCaP-luc tumors (SHO mice with LNCaP-luc tumors, PCL-1 0.5 μmol Day 1, sesame oil and PCL-1 Day 2) is recorded as “no change in basal bioluminescent signal”. In addition, the “bioluminescence of mice treated only with PCL-1, no added peroxide” value with FVB-luc mice [3] is given as “modest but measurable bioluminescence”. For the same compound, the “integrated total photon flux as a function of the H2O2 concentration” value in the test with FVB-luc mice [3] (then H2O2 i.p., integrated over one hour) was “dose-dependent increase in signal”. Further, the “increase in bioluminescent signal (total normalized photon flux) on addition of H2O2” value in test [4] is on record as “approximately seven-fold”. Also, the “detection limit for H2O2” value in the test on LNCaP-luc cells [5] turned out to be 2.5 µM. In addition, the “H2O2 concentration up to which total observed photon flux increases linearly” value in the test with LNCaP-luc cells [5] (H2O2 2.5 to 500 μM, integrated over 2 h) is on record as “up to 250 μM”. Moreover, the “bioluminescent signal from the cells in the absence of H2O2” value in the test on LNCaP-luc cells [5] (no H2O2) is on record as “negligible”.
Turning to `O=C(O)[C@H]1CSC(c2nc3ccc(O)cc3s2)=N1` [luciferin], the “time after injection at which the signal peak is reached” value with LNCaP-luc tumors (LNCaP-luc cells, peak before first imaging timepoint) was less than 1 min.
On to `C[n+]1ccc(-c2cc[n+](C)cc2)cc1` [paraquat, reference compound], for which, in the test on LNCaP-luc cells [6] (500 μM paraquat for 24 hours, then PCL-1 50 μM), the “PCL-1 derived luminescence compared to unstimulated control cells” value is reported as “patently higher”.
For the compound `CCC(=O)O[C@H]1CC[C@H]2[C@@H]3CCC4=CC(=O)CC[C@]4(C)[C@H]3CC[C@]12C` [testosterone propionate], the “increase in total photon flux compared to vehicle control mice” value in the test on LNCaP-luc tumors (SHO mice with LNCaP-luc tumors, testosterone propionate 3 mg in sesame oil, PCL-1 0.5 μmol 1.5 h later) is recorded as “approximately 41%”.
In the case of catalase, the “bioluminescence signal with catalase plus paraquat compared to paraquat alone” value with LNCaP-luc cells [6] (500 μM paraquat 24 h, PCL-1 50 μM, catalase 1×10^4 U/L) is reported as “decrease in bioluminescence signal”. The “PCL-1 bioluminescence of catalase-treated cells compared to untreated specimens” value with LNCaP-luc cells [6] (no paraquat, PCL-1 50 μM, catalase 1×10^4 U/L) is on record as “reduces the level of PCL-1 bioluminescence”.
